Source: US7098350B2, “E2,E4,Z8-undecatrienoic acid and ester and carboxamide derivatives thereof, organoleptic uses thereof and processes for preparing same” (International Flavors & Fragrances Inc., priority 2003, dated 2006)

Assays:
[1] = Taste evaluation in kiwi-flavored 30° proof alcoholic beverage; settings: 3 ppm compound plus 200 ppm kiwi flavor blend in 30° proof alcoholic base; control has flavor blend only
Experimental: (§1) The following formulation was prepared: […]
Flavored beverages were prepared using the above 30° proof alcoholic base. A kiwi flavor was applied to the beverages. This flavor consisted of cis-3 hexenol, trans-2 hexenal, ethyl butyrate, ethyl-2-methyl butyrate, isoamyl butyrate, ethyl acetate, ethyl isovalerate, and trans-2-hexenol in equal proportions. The control beverage contained 200 ppm of the above flavor blend. […] Another beverage was prepared containing 200 ppm of the same flavor and 3 ppm of N-isobutyl E2,E4,Z8-undecatrienamide prepared according to Example 1(B).

[2] = Organoleptic and somatosensory properties (Table I); settings: at 10 ppm
Source text: Specific members of the 2,4,8-undecatrienoic acid derivative genus of our invention have organoleptic and somatosensory properties as set forth in the following Table I: […]

[3] = Taste evaluation in cola-flavored hard candy; settings: 50 ppm compound in cola-flavored hard candy; control without compound
Experimental: as §1
The above formulation was added to a stainless steel pot. With constant mixing, the formulation temperature was raised to 295° F. The pot was then removed from the heat, and 1.0 grams of a cola flavor containing the ingredients in equal amounts: cinnamic aldehyde, ginger oil, lemon oil, lime oil and nutmeg oil was added and blended with the sucrose-corn syrup-water formulation. After the blending was complete, 1.2 grams of citric acid was added. The resulting liquid candy was then deposited into molds, and the molds containing the liquid candy were cooled to room temperature, yielding 200 grams of finished hard candy. […] A second candy sample was prepared using the above recipe modified by the addition of 50 ppm of N-isobutyl E2, E4, Z8-undecatrienamide prepared according the procedure of Example 1 (B).

CC/C=C\CC/C=C/C=C/C(=O)NCC(C)C [N-isobutyl E2,E4,Z8-undecatrienamide]
Flavor of beverage versus control [1]: slightly more melon rind in character than the control
Perception / somatosensory effect of beverage versus control [1]: enhanced perception of alcohol and a tingle effect on the tongue
Primary Flavor or Sensory Characteristic (sensation) [2]: Strong tingle at 10 ppm.
Flavor and taste effect of hard candy versus control [3]: moderately strong and substantive cola profile, as well as a taste effect similar to carbonation
